Structures are written as SMILES.

The target in the test is T1, SARM1 (50-724) (Homo sapiens, UniProt Q6SZW1).
T1 construct: Purified SARM1 (50-724) with a final concentration of 2 nM
T1 sequence (Q6SZW1 50-724): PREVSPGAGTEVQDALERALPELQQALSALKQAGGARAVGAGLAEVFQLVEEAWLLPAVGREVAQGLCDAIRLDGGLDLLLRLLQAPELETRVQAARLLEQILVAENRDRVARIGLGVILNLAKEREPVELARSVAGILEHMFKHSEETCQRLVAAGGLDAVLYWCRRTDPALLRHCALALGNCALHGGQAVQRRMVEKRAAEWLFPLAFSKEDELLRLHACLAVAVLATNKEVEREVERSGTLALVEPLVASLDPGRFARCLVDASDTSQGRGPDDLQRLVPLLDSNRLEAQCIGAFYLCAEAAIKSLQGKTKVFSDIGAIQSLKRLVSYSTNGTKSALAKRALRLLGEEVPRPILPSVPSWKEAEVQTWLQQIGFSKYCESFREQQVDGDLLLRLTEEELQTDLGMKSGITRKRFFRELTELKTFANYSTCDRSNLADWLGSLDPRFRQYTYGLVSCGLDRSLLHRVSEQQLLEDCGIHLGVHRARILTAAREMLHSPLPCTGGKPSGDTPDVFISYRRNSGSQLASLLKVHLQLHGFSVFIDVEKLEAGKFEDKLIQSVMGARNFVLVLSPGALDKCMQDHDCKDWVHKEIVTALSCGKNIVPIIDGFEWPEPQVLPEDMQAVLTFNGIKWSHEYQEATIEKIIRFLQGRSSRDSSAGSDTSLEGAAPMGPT
The experiment in a line: SARM1 (50-724) enzymatic assay (NMN-activated NAD+ hydrolysis, LC-MS/MS readout). It counts as biochemical. The note with it: purified SARM1 (50-724) 2 nM, 200 μM NMN activator, 100 μM NAD+ substrate, 1 h at room temperature, read-out: IC50 (SARM1 inhibitory activity). On the procedure:
Example II. SARM1 (50-724) Enzymatic Assay
An enzymatic assay was performed in a 384-well plate using Dulbecco's phosphate-buffered saline (PBS) as the reaction buffer. Purified SARM1 (50-724) with a final concentration of 2 nM was pre-incubated with a test compound at 1% DMSO final assay concentration for 15 min at room temperature. The reaction was initiated by adding a mixture of 200 μM nicotinamide mononucleotide (NMN) as activator and 100 μM NAD^+ as substrate. After 1 h of incubation at room temperature, the reaction was terminated with 10 times volume of 70% acetonitrile, then centrifuged at 3800 rpm for 10 min. The samples were analyzed using LC-MS/MS after diluted to a proper concentration by 10 mM ammonium acetate (pH 9.75).
ND means “not determined.”
In the case of `Cc1ccc2[nH]c(C(=O)N(C)c3ccc(Cl)cc3)c(CO)c2c1` [Compound 25, N-(4-chlorophenyl)-3-(hydroxymethyl)-N,5-dimethyl-1H-indole-2-carboxamide], the IC50 (usually the point on the concentration scale where inhibition reaches its midpoint) was no less than 1000 nM.

In the case of `Cc1ccc2[nH]c(C(=O)NC3CCCC3)c(CO)c2c1` [Compound 26, N-cyclopenty1-3-(hydroxymethyl)-5-methyl-1H-indole-2-carboxamide], the concentration for half-maximal inhibition (IC50) is no less than 1000 nM.

As for `CC(C)c1ccc2[nH]c(C(=O)N(C)C3CCCC3)c(CO)c2c1` [Compound 27, N-cyclopenty1-3-(hydroxymethyl)-5-isopropyl-N-methyl-1H-indole-2-carboxamide], the IC50 was 101 to 500 nM.

With `CN(C(=O)c1[nH]c2ccc(C(F)(F)F)cc2c1CO)C1CCCC1` [Compound 28, N-cyclopentyl-3-(hydroxymethyl)-N-methyl-5-(trifluoromethyl)-1H-indole-2-carboxamide], the IC50 was 101 to 500 nM.

`COc1ccc2c(CO)c(C(=O)N(C)C3CCCC3)[nH]c2c1` [Compound 29, N-cyclopentyl-3-(hydroxymethyl)-6-methoxy-N-methyl-1H-indole-2-carboxamide]: the IC50 is no less than 1000 nM.

For the compound `COc1cc2[nH]c(C(=O)N(C)C3CCCC3)c(CO)c2cc1OC` [Compound 30, N-cyclopentyl-3-(hydroxymethyl)-5,6-dimethoxy-N-methyl-1H-indole-2-carboxamide], the IC50 was no less than 1000 nM.

Regarding `CN(C(=O)c1[nH]c2cc(Cl)cc(Cl)c2c1CO)C1CCCC1` [Compound 31, 4,6-dichloro-N-cyclopentyl-3-(hydroxymethyl)-N-methyl-1H-indole-2-carboxamide], the IC50 was no less than 1000 nM.

On to `CN(C(=O)c1[nH]c2ccc(F)cc2c1CO)C1CCCC1` [Compound 32, N-cyclopentyl-5-fluoro-3-(hydroxymethyl)-N-methyl-1H-indole-2-carboxamide], for which the IC50 was no less than 1000 nM.

Take `CN(C(=O)c1[nH]ncc1CO)C1CCCC1` [Compound 33, N-cyclopentyl-4-(hydroxymethyl)-N-methyl-1H-pyrazole-5-carboxamide]: the IC50 was no less than 1000 nM.

Turning to `COc1cc(OC)c2c(CO)c(C(=O)N(C)C3CCCC3)[nH]c2c1` [Compound 34, N-cyclopentyl-3-(hydroxymethyl)-4,6-dimethoxy-N-methyl-1H-indole-2-carboxamide], the IC50 is no less than 1000 nM.

On to `Cc1ccc2[nH]c(C(=O)N(C)C3CCCC(C)C3C)c(CO)c2c1` (centres unmarked) [Compound 35, N-(2,3-dimethylcyclohexyl)-3-(hydroxymethyl)-N,5-dimethyl-1H-indole-2-carboxamide], for which the IC50 was no less than 1000 nM.

In the case of `Cc1ccc2[nH]c(C(=O)N(C)C3CCCC3)c(CCO)c2c1` [Compound 36, N-cyclopentyl-3-(2-hydroxyethyl)-N,5-dimethyl-1H-indole-2-carboxamide], the IC50 lay in the range of 101 to 500 nM.

Turning to `COCCc1c(C(=O)N(C)C2CCCC2)[nH]c2ccc(C)cc12` [Compound 37, N-cyclopenty1-3-(2-methoxyethyl)-N,5-dimethyl-1H-indole-2-carboxamide], the IC50 fell in the range of 101 to 500 nM.

As for `Cc1cnc2[nH]c(C(=O)N(C)C3CCCC3)c(CO)c2c1` [Compound 38, N-cyclopentyl-3-(hydroxymethyl)-N,5-dimethyl-1H-pyrrolo[2,3-b]pyridine-2-carboxamide], the IC50 was no less than 1000 nM.

In the case of `Cc1cccc2c(CO)c(C(=O)N(C)C3CCCC3)[nH]c12` [Compound 39, N-cyclopentyl-3-(hydroxymethyl)-N,7-dimethyl-1H-indole-2-carboxamide], the IC50 was no less than 1000 nM.

In the case of `CN(C(=O)c1[nH]c2cc(Br)ccc2c1CO)C1CCCC1` [Compound 40, 6-bromo-N-cyclopentyl-3-(hydroxymethyl)-N-methyl-1H-indole-2-carboxamidc], the IC50 is no less than 1000 nM.

As for `CN(C(=O)c1[nH]c2cc(Cl)ccc2c1CO)C1CCCC1` [Compound 41, 6-chloro-N-cyclopentyl-3-(hydroxymethyl)-N-methyl-1H-indole-2-carboxamide], the IC50 is no less than 1000 nM.

Turning to `Cc1ccc2[nH]c(C(=O)N(C)C3C[C@@H](C)O[C@@H](C)C3)c(CO)c2c1` (stereo partly drawn) [Compound 42, N-((2R,6S)-2,6-dimethyltetrahydro-2H-pyran-4-yl)-3-(hydroxymethyl)-N,5-dimethyl-1H-indole-2-carboxamide], the IC50 was no less than 1000 nM.

`Cc1cccc(N(C)C(=O)c2[nH]c3ccc(C)cc3c2CO)c1` [Compound 43, 3-(hydroxymethyl)-N,5-dimethyl-N-(m-tolyl)-1H-indole-2-carboxamidc]: the IC50 is no less than 1000 nM.

With `Cc1ccc(N(C)C(=O)c2[nH]c3ccc(C)cc3c2CO)cc1` [Compound 44, 3-(hydroxymethyl)-N,5-dimethyl-N-(p-tolyl)-1H-indole-2-carboxamide], the 50% inhibitory concentration (IC50) was no less than 1000 nM.

For `CN(C(=O)c1[nH]ccc1CO)C1CCCC1` [Compound 45, N-cyclopentyl-3-(hydroxymethyl)-N-mcthyl-1H-pyrrole-2-carboxamide], the IC50 is no less than 1000 nM.

`Cc1ccc2[nH]c(C(=O)N(C)C3CCCC3)nc2c1` [Compound 46, N-cyclopentyl-N,5-dimethyl-1H-benzo[d]imidazole-2-carboxamide]: the IC50 lay in the range of 101 to 500 nM.

In the case of `Cc1ccc2[nH]c(C(=O)N(C)C3CCCCC3)nc2c1` [Compound 47, N-cyclohexyl-N,5-dimethyl-1H-benzo[d]imidazole-2-carboxamide], the IC50 lay in the range of 101 to 500 nM.

`CN(C(=O)c1nc2cc(C(F)(F)F)ccc2[nH]1)C1CCCC1` [Compound 48, N-cyclopentyl-N-methyl-5-(trifluoromethyl)-1H-benzo[d]imidazole-2-carboxamide]: the 50% inhibitory concentration (IC50) is no more than 100 nM.

Consider `Cc1ccc2[nH]c(C(=O)N(CCO)C3CCCC3)nc2c1` [Compound 49, N-cyclopentyl-N-(2-hydroxyethyl)-5-methyl-1H-benzo[d]imidazole-2-carboxamide], for which the IC50 lay within 101 to 500 nM.

With `Cc1ccc2[nH]c(C(=O)N(CCO)c3cccc(Cl)c3Cl)nc2c1` [Compound 50, N-(2,3-dichlorophenyl)-N-(2-hydroxyethyl)-5-methyl-1H-benzo[d]imidazole-2-carboxamide], the IC50 was no less than 1000 nM.

Regarding `CN(C(=O)c1nc2ccccc2[nH]1)C1CCCC1` [Compound 51, N-cyclopentyl-N-methyl-1H-benzo[d]imidazole-2-carboxamide], the IC50 was no less than 1000 nM.

As to `Cc1ccc2[nH]c(C(=O)N(C)C3CCCC3)nc2n1` [Compound 52, N-cyclopentyl-N,5-dimethyl-1H-imidazo[4,5-b]pyridine-2-carboxamide], the IC50 is no less than 1000 nM.

With `Cc1ccc2[nH]c(C(=O)N(C)C3CC4CC4C3)nc2c1` (centres unmarked) [Compound 53, N-(bicyclo[3.1.0]hexan-1H-benzo[d]imidazole-2-carboxamide], the IC50 was no less than 1000 nM.

As to `CN(C(=O)c1cc2ccccc2[nH]1)C1CCCC1` [Compound 54, N-cyclopentyl-N-methyl-1H-indole-2-carboxamide], the IC50 was no less than 1000 nM.

On to `CN(C(=O)C1Cc2ccccc2N1)C1CCCC1` (centres unmarked) [Compound 55, N-cyclopentyl-N-methylindoline-2-carboxamide], for which the IC50 is no less than 1000 nM.

On to `CN(C(=O)c1nc2ccccc2o1)C1CCCC1` [Compound 56, N-cyclopentyl-N-methylbenzo[d]oxazole-2-carboxamide], for which the IC50 was no less than 1000 nM.

Consider `CC(C)c1c[nH]c(C(=O)N(C)C2CCCC2)n1` [Compound 57, N-cyclopentyl-4-isopropyl-N-methyl-1H-imidazole-2-carboxamide], for which the IC50 is no less than 1000 nM.

As to `CN(C(=O)c1nc2c([nH]1)CCCC2)C1CCCC1` [Compound 58, N-cyclopentyl-N-methyl-4,5,6,7-tetrahydro-1H-benzo[d]imidazole-2-carboxamide], the IC50 was no less than 1000 nM.

With `Cc1nc(C(=O)N(C)C2CCCC2)[nH]c1C` [Compound 59, N-cyclopentyl-N,4,5-trimethyl-1H-imidazole-2-carboxamide], the IC50 was no less than 1000 nM.

`CN(C(=O)c1nc2c([nH]1)C(=O)CCC2)C1CCCC1` [Compound 61, N-cyclopentyl-N-methyl-7-oxo-4,5,6,7-tetrahydro-1H-benzo[d]imidazole-2-carboxamide]: the IC50 is no less than 1000 nM.

As to `COCCN(C(=O)c1nc2cc(C)ccc2[nH]1)C1CCCC1` [Compound 62, N-cyclopentyl-N-(2-methoxyethyl)-5-methyl-1H-benzo[d]imidazole-2-carboxamide], the IC50 was in the range of 101 to 500 nM.

Take `CNCCN(C(=O)c1nc2cc(C)ccc2[nH]1)C1CCCC1` [Compound 63, N-cyclopentyl-5-methyl-N-(2-(methylamino)ethyl)-1H-benzo[d]imidazol-2-carboxamide]: the IC50 is no less than 1000 nM.

Source of the values: patent US20260265195A1, “SARM1 MODULATORS, PREPARATIONS, AND USES THEREOF” (SIRONAX LTD, priority 2022, published 2026).
